From patent US9545386B2, “Methods of treating infectious diseases” (SLIPPERY ROCK UNIVERSITY FOUNDATION, INC., priority 2007, dated 2017)

How the values were obtained:
H. contortus = details: background statement; cited from earlier work
P. trichosuri = details: doramectin 0.6 mg/kg, in vivo, p<0.05, Ralston et al. (2001); cited from earlier work
[1] = test system: Haemonchus contortus infective larvae; assay: In vitro bioassay of infective larvae, immobilization and lethal doses (eosin, Probit); format: cell-based; details: H. contortus infective larvae; for 48 hr ID50 ± 95% confidence intervals: immobilize 50%; for 48 hr ID50 ± 95% confidence intervals / 48 hr ID90 ± 95% confidence intervals / 48 hr LD50 ± 95% confidence intervals / 48 hr LD90 ± 95% confidence intervals: 48 hr in vitro; for 48 hr ID90 ± 95% confidence intervals: immobilize 90%; for 48 hr LD50 ± 95% confidence intervals: kill 50%; for 48 hr LD90 ± 95% confidence intervals: kill 90%
Method: (§1) Strongyloides stercoralis infective larvae were harvested from charcoal coprocultures in nematode saline solution. The larvae were supplied by the Parasitology Laboratory, Department of Pathobiology, University of Pennsylvania. The strain of larvae was a human strain of the parasitic nematode that had been maintained for over ten years in canines by daily prednisolone treatment (2 mg/kg per os, once daily. Parastrongyloides trichosuri and Ancylostoma caninum infective larvae were also supplied by the same source as for S. stercoralis. Haemonchus contortus infective larvae were harvested from charcoal coprocultures in nematode saline solution prepared from infected sheep feces obtained from Merck Parasites Laboratory.
(§2) The 24 hr 50% and 90% immobilization doses (ID50 and ID90), and 50% and 90% lethal doses (LD50 and LD90) of eryngial (mg/ml) were investigated in vitro using infective larvae of all four parasitic nematodes. Each species was exposed to a range of eryngial dilutions by adding known volumes of a homogeneous ‘wormy’ solution (infective larvae in nematode saline solution) to known volumes of an eryngial stock suspension (10 mg/ml of nematode saline solution). Each dilution, including the control (0 mg/ml eryngial), was prepared in triplicate and also contained eosin (0.01%, w/v), which was used as an indicator of mortality, and Triton X-100 (1.0%, v/v).
(§3) Using S. stercoralis, P. trichosuri, H. contortus and A. caninum infective larvae, eryngial dilutions, excluding the controls, ranged from 0.05 to 1.15 mg/ml; 0.01 to 1.0 mg/ml; 0.5 to 2.0 mg/ml; and 0.8 to 3.0 mg/ml, respectively. Sub-sample (10 μl) counts of larvae that were mobile, immobile but not stained and stained, were done at the start of each bioassay and at 24 hr intervals for two days. Each sub-sample contained approximately 50 infective larvae.
(§4) The 48-hr immobilization doses (ID50 and ID90) and lethal doses (LD50 and LD90) of eryngial and ivermectin also were investigated, using S. stercoralis and H. contortus infective larvae. Each bioassay was conducted as described hereinabove. Using S. stercoralis and H. contortus infective larvae, ivermectin dilutions (not including the controls) ranged from 0.03 to 0.3 mg/ml and from 0.009 to 0.1 mg/ml, respectively.
(§5) Probit analysis was used to determine 24 hr and 48 hr immobilization and lethal doses for eryngial and ivermectin, respectively.

[2] = test system: Strongyloides stercoralis infective larvae; assay: as above; format: cell-based; details: S. stercoralis infective larvae, 48 hr in vitro; for 48 hr ID50 ± 95% confidence intervals: immobilize 50%; for 48 hr ID90 ± 95% confidence intervals: immobilize 90%; for 48 hr LD50 ± 95% confidence intervals: kill 50%; for 48 hr LD90 ± 95% confidence intervals: kill 90%
Method: as §1, §2, §3, §4, §5

[3] = test system: A. canimun life-cycle stages; details: in vitro, Wang et al. (1989), cited from earlier work
A. caninum = details: in vivo; cited from earlier work

For `c1ccc(C2CN3CCSC3=N2)cc1` (stereo not shown) [tetramisole], the “efficacy rates against H. contortus infections” value (H. contortus) is listed as 100%.
For `CO[C@H]1C[C@H](O[C@H]2[C@H](C)O[C@@H](O[C@@H]3/C(C)=C/C[C@@H]4C[C@@H](C[C@]5(C=C[C@H](C)[C@@H](C6CCCCC6)O5)O4)OC(=O)[C@@H]4C=C(C)[C@@H](O)[C@H]5OC/C(=C\C=C\[C@@H]3C)[C@]54O)C[C@@H]2OC)O[C@@H](C)[C@@H]1O` [doramectin], the “reduction of P. trichosuri infection in possums” value (P. trichosuri) is given as 99%.
In the case of `CCCSc1ccc2nc(NC(=O)OC)[nH]c2c1` [Albendazole, albendazole], the “efficacy rates against H. contortus infections” value (H. contortus) is listed as 100%.
For ivermectin [reference compound], the “48 hr ID50 ± 95% confidence intervals” value [1] was 0.011 (0.001-0.022) mg/ml, the “48 hr ID50 ± 95% confidence intervals” value ([1]; listed as ivermectin) was 0.011 mg/mL and the “48 hr ID90 ± 95% confidence intervals” value [1] was 0.059 (0.043-0.092) mg/ml. For the same compound, the “48 hr ID90 ± 95% confidence intervals” value ([1]; listed as ivermectin) was 0.059 mg/mL, the “times greater in potency than eryngial (48 hr ID90)” value ([1]; ivermectin vs eryngial) was 12.9 times and the “times more effective than eryngial at immobilizing (48 hr ID50)” value ([1]; ivermectin vs eryngial) was 28.5 times. The “48 hr LD50 ± 95% confidence intervals” value [1] was 4.990 (4.572-5.954) mg/ml, the “48 hr LD50 ± 95% confidence intervals” value ([1]; listed as ivermectin) was 4.990 mg/mL and the “48 hr LD90 ± 95% confidence intervals” value [1] was 6.949 (5.858-10.10) mg/ml. For the same compound, the “48 hr LD90 ± 95% confidence intervals” value ([1]; listed as ivermectin) was 6.949 mg/mL, the “48 hr ID50 ± 95% confidence intervals” value [2] was 0.136 (0.114-0.157) mg/ml and the “48 hr ID50 ± 95% confidence intervals” value ([2]; listed as ivermectin) was 0.136 mg/mL. For the same compound, the “48 hr ID90 ± 95% confidence intervals” value [2] was 0.297 (0.251-0.377) mg/ml, the “48 hr ID90 ± 95% confidence intervals” value ([2]; listed as ivermectin) was 0.297 mg/mL and the “48 hr LD50 ± 95% confidence intervals” value [2] was 0.306 (0.203-0.442) mg/ml. The “48 hr LD50 ± 95% confidence intervals” value ([2]; listed as ivermectin) was 0.306 mg/mL, the “48 hr LD90 ± 95% confidence intervals” value [2] was 1.038 (0.665-2.498) mg/ml and the “48 hr LD90 ± 95% confidence intervals” value ([2]; listed as ivermectin) was 1.038 mg/mL. For the same compound, the “dose that killed L3 larvae” value ([3]; A. caninum L3 larvae) was 2.5 mg/mL, the “dose that killed adult worms” value ([3]; A. caninum adult worms) was 560 mg/mL and the “dose detrimental to eggs inside the uterine tissue of female worms” value ([3]; A. caninum eggs) was 1000 mg/mL. For the same compound, the “effectiveness in infected dogs” value (A. caninum) was “clearing the infection completely”.
